Source: patent US8956646B2, “Zwitterionic lipids” (The Regents of the University of California, priority 2010, dated 2015)
“Also recorded” adds a separate entry of the source.

How the values were obtained:
[1] = literature values, cited from earlier work; for Transition Temperatures (° C.), PC: PC headgroup; for Transition Temperatures (° C.), PE: PE headgroup
[2] = ZNLP hydrodynamic diameter, zeta potential and encapsulation efficiency; format: physicochemical; settings: ZNLP encapsulating siRNA
Experimental: 5-10 min after particle formation liposomes are extruded through either 50 nm or 80 nm polycarbonate membranes 7 times. Methanol can be removed by either evaporation or dialysis.
FIG. 29 is a table showing ZNLP encapsulating siRNA: hydrodynamic diameter and zeta potential: siRNA was encapsulated into ZNLP from various zwitterionic lipids.
FIG. 30 is a table showing the effect of helper lipids on size and encapsulation efficiency: Changing helper lipid and lipid composition affects size and encapsulation efficiency of ZNLP. DOBA-Q formed small lipid vesicles≦80 nm. […] All lipid formulations display negative/neutral zeta potential.

[3] = SBL liposome formation, diameter and PDI in various salts; format: physicochemical; design: key to Liposome diameter (nm): DNF=Did Not Form, no liposomes formed
Experimental: The five SBLs were first examined for their ability to make vesicles under standard buffer conditions (10 mM HEPES, 140 mM NaCl, pH 7.4). We observed that none of the five SBLs were able to form stable liposomes after thin film rehydration in this buffer followed by sonication at 80° C. […] To test if the SB headgroup inner salt interactions could be disrupted by an increase in salt concentration, the same liposome formation process was performed at increasing NaCl concentrations. Salts with different anions were also tested to determine if those predicted to have greater binding than Cl^− would allow for liposome formation at concentrations where NaCl was not able to. Liposome-formation results are shown in Table 4 for all five SBLs with a variety of salts and at various NaCl concentrations.
Liposome preparations were made at 26 mM lipid in 10 mM HEPES buffer, pH 7.4 with the specified salt concentration. All preparations were rehydrated and sonicated at 80° C. for 7 minutes, allowed to cool for 5 minutes and then measured.
Liposome diameters were measured both five minutes after sonication and at 24 hours. DPSB and DSSB in NaI both formed gels and could not be measured and DPSB and DSSB with KBr precipitated into particles too large and polydisperse for measurement.

[4] = Zeta/surface potential of SBL liposomes in salt solutions; format: physicochemical; settings: order of anions; data not shown
Source text: The vesicles formed in these three salts were all reasonably small, with those formed in KBr having, on average, a slighter larger diameter. This may be due the weaker binding of Br^− to the cationic region of the SBLs relative to I^− and ClO4^−, which would result in a higher percentage of SBLs in the inner-salt conformation.

[5] = Phase transition temperatures of sulfobetaine lipids (DSC); format: physicochemical; settings: for inner/outer salt form (high/low transition) as function of NaCl concentration: DSC, 10 mM HEPES pH 7.4, NaCl up to 1M; for Transition Temperatures (° C.), SB Inner Salt: hypothesized inner salt form, observed high phase transition; for Transition Temperatures (° C.), SB Outer Salt: hypothesized outer salt form, observed low phase transition
Experimental: All buffers contain 10 mM HEPES, pH 7.4. Preparations were made at 26 mM SB lipid by thin film rehydration at 80° C., followed by brief 20 second bursts of sonication at 80° C. (˜2-4 times) to make dispersions of large bilayer fragments.
Based on our observations that SBL liposome formation and stability is largely dependent on salt composition and concentration we sought to determine if these effects changed the transition temperatures of the liposomes. The data in FIG. 3 clearly depicts a bi-modal phase transition behavior for the SBLs. Without salt, the majority of the SBLs are likely in one of the inner salt forms supported by the observed elevated transition temperatures.
Inner and outer salt conformations of the SBLs are hypothesized to coordinate to the observed high and low phase transitions, respectively.

[6] = Zeta potential of BLL containing vesicles as a function of pH; format: physicochemical; settings: changing ratio of DOBAQ:DOPC
Experimental: Liposomes containing quaternary BLL remain neutral at pH>pI, while liposomes containing tertiary BLL move from neutral to anionic as pH increases above the pI due to deprotonation of the amine.
All other lipids show pH responsive behavior, with 4° BLL generally transitioning from cationic to neutral, and 3° from cationic to neutral to anionic.
Further analysis is required to fully understand this behavior.

[7] = Zeta potential of liposomes as a function of calcium concentration; format: physicochemical; settings: across physiological Ca2+ concentrations
Experimental: Liposomes were prepared from either DOPC or DOCPe and their zeta potentials were measured in a Malvern zetaNano instrument as a function of the calcium concentration. Liposomes prepared from either lipid become more positively charged as the Ca^2+ concentration increases.

[8] = 0 mM NaCl, 26 mM lipid, 10 mM HEPES pH 7.4
[9] = 150 mM KBr, five minutes after sonication
[10] = 150 mM NaCl, 26 mM lipid, 10 mM HEPES pH 7.4
[11] = 150 mM NaClO4, five minutes after sonication
[12] = 150 mM NaI, five minutes after sonication
[13] = 500 mM NaCl, 26 mM lipid, 10 mM HEPES pH 7.4
[14] = 1000 mM NaCl, 26 mM lipid, 10 mM HEPES pH 7.4

Compound	Liposome diameter (nm) [3, 8]	Liposome diameter (nm) ([3]; 150 mM KBr (24 h))	Liposome diameter (nm) [3, 9] [nm]	PDI [3, 9]	Liposome diameter (nm) [3, 10]	Liposome diameter (nm) ([3]; 150 mM NaClO4 (24 h))	PDI ([3]; 150 mM NaClO4 (24 h))	Liposome diameter (nm) [3, 11] [nm]	PDI [3, 11]	Liposome diameter (nm) ([3]; 150 mM NaF)	Liposome diameter (nm) ([3]; 150 mM NaI (24 h))	Liposome diameter (nm) [3, 12] [nm]	PDI [3, 12]	Liposome diameter (nm) [3, 13] [nm]	PDI [3, 13]	Liposome diameter (nm) [3, 14] [nm]	PDI [3, 14]	other results
CCCCCCCCCCCCCC(=O)OC[C@H](COP(=O)([O-])OCC[N+](C)(C)C)OC(=O)CCCCCCCCCCCCC [C14 PC]	–	–	–	–	–	–	–	–	–	–	–	–	–	–	–	–	–	Transition Temperatures (° C.), PC [1]: 24.2 °C
CCCCCCCCCCCCCC(=O)OC[C@H](COP(=O)(O)OCCN)OC(=O)CCCCCCCCCCCCC [C14 PE]	–	–	–	–	–	–	–	–	–	–	–	–	–	–	–	–	–	Transition Temperatures (° C.), PE [1]: 49.4 °C
CCCCCCCCCCCCCCCC(=O)OC[C@H](COP(=O)([O-])OCC[N+](C)(C)C)OC(=O)CCCCCCCCCCCCCCC [C16 PC]	–	–	–	–	–	–	–	–	–	–	–	–	–	–	–	–	–	Transition Temperatures (° C.), PC [1]: 41.7 °C
CCCCCCCCCCCCCCCC(=O)OCC(COP(=O)(O)OCCN)OC(=O)CCCCCCCCCCCCCCC (stereo not shown) [C16 PE]	–	–	–	–	–	–	–	–	–	–	–	–	–	–	–	–	–	Transition Temperatures (° C.), PE [1]: 63.5 °C
CCCCCCCCCCCCCCCCCC(=O)OC[C@H](COP(=O)([O-])OCC[N+](C)(C)C)OC(=O)CCCCCCCCCCCCCCCCC [C18 PC]	–	–	–	–	–	–	–	–	–	–	–	–	–	–	–	–	–	Transition Temperatures (° C.), PC [1]: 55.3 °C
CCCCCCCCCCCCCCCCCC(=O)OC[C@H](COP(=O)(O)OCCN)OC(=O)CCCCCCCCCCCCCCCCC [C18 PE]	–	–	–	–	–	–	–	–	–	–	–	–	–	–	–	–	–	Transition Temperatures (° C.), PE [1]: 74.4 °C
CCCCC/C=C\C/C=C\CCCCCCCC(=O)OC[C@H](COP(=O)(O)OCCN)OC(=O)CCCCCCC/C=C\C/C=C\CCCCC [DIinPE, reference compound]	–	–	–	–	–	–	–	–	–	–	–	–	–	–	–	–	–	siRNA encapsulation efficiency [2]: decreases encapsulation efficiency
CCCCCCCCCCCC(=O)OCC(C[N+](C)(C)CCCS(=O)(=O)[O-])OC(=O)CCCCCCCCCCC (stereo not shown) [DLSB]	DNF	74.35 nm	54.56	0.276	1728 nm	37.32	0.251	30.46	0.205	DNF	39.24 nm	28.93	0.163	41.7	0.296	56.5	0.361	ability to make vesicles under standard buffer conditions ([3]; 10 mM HEPES, 140 mM NaCl, pH 7.4, thin film rehydration, sonication at 80° C.): formed large, polydisperse structures; PDI ([3]; 150 mM KBr (24 h)): 0.254; PDI [3, 10]: 0.708; PDI ([3]; 150 mM NaI (24 h)): 0.215
CCCCCCCCCCCCCC(=O)OCC(C[N+](C)(C)CCCS(=O)(=O)[O-])OC(=O)CCCCCCCCCCCCC (stereo not shown) [DMSB]	DNF	31.67 nm	28.53	0.160	DNF	43.68	0.24	41.76	0.239	DNF	38.69 nm	35.3	0.232	63.92	0.385	76.8	0.233	zeta-potential (surface potential) in various salt solutions [4]: most negative for ClO4^−>I^−>Br^−>Cl^−; phase transitions observed ([5]; 150 mM NaClO4): only the high transition; phase transitions observed ([5]; 150 mM NaF): only the low transition; inner/outer salt form (high/low transition) as function of NaCl concentration [5]: existing as the outer salt with a high transition temperature for all NaCl concentrations up to 1M; Transition Temperatures (° C.), SB Inner Salt [5]: 48 °C; Transition Temperatures (° C.), SB Outer Salt [5]: 25-30 °C; PDI ([3]; 150 mM KBr (24 h)): 0.181; PDI ([3]; 150 mM NaI (24 h)): 0.250; liposome formation ([3]; 500 mM NaF): unable to form liposomes
CCCCCCCC/C=C\CCCCCCCC(=O)OCC(C[N+](C)(C)Cc1ccc(C(=O)[O-])cc1)OC(=O)CCCCCCC/C=C\CCCCCCCC (stereo not shown) [DOBAQ]	–	–	–	–	–	–	–	–	–	–	–	–	–	–	–	–	–	ZNLP size (hydrodynamic diameter) [2]: ≤ 80 nm; Zeta potential as function of pH, effect of BLL:DOPC ratio [6]: general relationship between pH and zeta potential is maintained at all ratios tested
CCCCCCCC/C=C\CCCCCCCC(=O)OCC(C[N+](C)(C)CCOP(=O)([O-])OCC)OC(=O)CCCCCCC/C=C\CCCCCCCC (stereo not shown) [DOCPe]	–	–	–	–	–	–	–	–	–	–	–	–	–	–	–	–	–	zeta potential of liposomes [7]: remain negative
CCCCCCCC/C=C\CCCCCCCC(=O)OC[C@H](COP(=O)([O-])OCC[N+](C)(C)C)OC(=O)CCCCCCC/C=C\CCCCCCCC [DOPC, reference compound]	–	–	–	–	–	–	–	–	–	–	–	–	–	–	–	–	–	zeta potential of liposomes [7]: become positively charged
CCCCCCCC/C=C\CCCCCCCC(=O)OCC(C[N+](C)(C)CCCS(=O)(=O)[O-])OC(=O)CCCCCCC/C=C\CCCCCCCC (stereo not shown) [DOSB]	DNF	137.6 nm	120.8	0.260	DNF	69.18	0.235	67.7	0.250	DNF	99.24 nm	90.58	0.246	126.9	0.197	118.9	0.176	PDI ([3]; 150 mM KBr (24 h)): 0.353; PDI ([3]; 150 mM NaI (24 h)): 0.253
CCCCCCCCCCCCCCCC(=O)OCC(C[N+](C)(C)CCCS(=O)(=O)[O-])OC(=O)CCCCCCCCCCCCCCC (stereo not shown) [DPSB]	DNF	Precipitated	64.35	0.134	DNF	42.71	0.353	35.1	0.220	DNF	Formed Gel	57.45	0.296	66.95	0.253	92.53	0.275	phase transitions observed ([5]; 150 mM NaClO4): only the high transition; phase transitions observed ([5]; 150 mM NaF): only the low transition; temperature of residual inner salt transition ([5]; 500 mM NaCl): 58 °C; inner/outer salt form (high/low transition) as function of NaCl concentration [5]: switches from the inner salt to the outer salt at 500 mM; Transition Temperatures (° C.), SB Inner Salt [5]: 60 °C; Transition Temperatures (° C.), SB Outer Salt [5]: 43 °C
CCCCCCCCCCCCCCCCCC(=O)OCC(C[N+](C)(C)CCCS(=O)(=O)[O-])OC(=O)CCCCCCCCCCCCCCCCC (stereo not shown) [DSSB]	DNF	Precipitated	102.3	0.123	DNF	71.96	0.282	42.45	0.258	DNF	Formed Gel	43.31	0.231	122.7	0.285	137.9	0.404	phase transitions observed ([5]; 150 mM NaF, NaCl, KBr, NaI, NaClO4): both transitions for all salts except NaClO4; inner/outer salt form (high/low transition) as function of NaCl concentration [5]: never exists completely as the inner salt conformation, but does reside as the outer salt form at 500 mM; also recorded: small low transition peak in a buffer without NaCl; Transition Temperatures (° C.), SB Inner Salt [5]: 68 °C; Transition Temperatures (° C.), SB Outer Salt [5]: 57 °C
